pIC50: −log10 of the molar value.
Tests used:
[1] = tested on: 011B; design: MTT antiproliferation assay, absorbance at 570 nm, human cancer cell line panel; details: 3-day MTT; inhibitor; read-out: Table S1. IC50 of CCT271850 determined by MTT and clonogenic assays (CA). / All cell lines were tested at least 2 times. / 3-day MTT
Protocol: (§1) Cell lines were obtained from the American Type Culture Collection and grown in their recommended culture medium, supplemented with 10% FBS at 37 °C in 5% CO2. In-house authentication of cell lines by SNP profiling was carried out and cultured cells were passaged for less than 6 months before replacement from early-passage frozen stocks. Cells were regularly screened for Mycoplasma, using a PCR-based assay (VenorGem; Minerva Biolabs, Berlin, Germany). Transfections were carried out at ∼80% confluency with the plasmids indicated, using Lipofectamine LTX (15338030, Life Technologies, Carlsbad, CA, USA) according to the manufacturer's instructions. Cell proliferation assays were carried out by colorimetric MTT method (Sigma, St Louis, MO, USA) as described elsewhere ([Mosmann, 1983]). Briefly, cells were plated in 96-well plates at 2000–5000 cells per well (depending on the cell line) followed by treatment with two-fold dilutions of 0–25 μM drug for 72 h. Absorbance was measured at 570 nm with the Wallac VICTOR2 1420 Multilabel Counter (PerkinElmer, Waltham, MA, USA). To evaluate CCT271850 antiproliferation effects in a large panel of human cancer cell lines, 91 cell lines were treated for 72 h and 14 days at different compound concentrations in growth inhibition assays. The growth inhibition values as measured by IC50 are summarised in Table 2 and Supplementary Table S1. […] Cell lines from colon and head and neck cancers were among the most sensitive.

[2] = tested on: KGN; design: MTT antiproliferation assay, absorbance at 570 nm, human cancer cell line panel; details: 3-day MTT; inhibitor; read-out: Table S1. IC50 of CCT271850 determined by MTT and clonogenic assays (CA). / All cell lines were tested at least 2 times. / 3-day MTT
Protocol: as §1

[3] = tested on: Miapaca-2; design: MTT antiproliferation assay, absorbance at 570 nm, human cancer cell line panel; details: 3-day MTT; inhibitor; read-out: Table S1. IC50 of CCT271850 determined by MTT and clonogenic assays (CA). / All cell lines were tested at least 2 times. / 3-day MTT
Protocol: as §1

[4] = tested on: HN3; design: MTT antiproliferation assay, absorbance at 570 nm, human cancer cell line panel; details: 3-day MTT; inhibitor; read-out: Table S1. IC50 of CCT271850 determined by MTT and clonogenic assays (CA). / All cell lines were tested at least 2 times. / 3-day MTT
Protocol: as §1

[5] = tested on: PANC-1; design: MTT antiproliferation assay, absorbance at 570 nm, human cancer cell line panel; details: 3-day MTT; inhibitor; read-out: Table S1. IC50 of CCT271850 determined by MTT and clonogenic assays (CA). / All cell lines were tested at least 2 times. / 3-day MTT
Protocol: as §1

[6] = tested on: Det562; design: MTT antiproliferation assay, absorbance at 570 nm, human cancer cell line panel; details: 3-day MTT; inhibitor; read-out: Table S1. IC50 of CCT271850 determined by MTT and clonogenic assays (CA). / All cell lines were tested at least 2 times. / 3-day MTT
Protocol: as §1

[7] = tested on: SW626; design: MTT antiproliferation assay, absorbance at 570 nm, human cancer cell line panel; details: 3-day MTT; inhibitor; read-out: Table S1. IC50 of CCT271850 determined by MTT and clonogenic assays (CA). / All cell lines were tested at least 2 times. / 3-day MTT
Protocol: as §1

[8] = tested on: EF027; design: MTT antiproliferation assay, absorbance at 570 nm, human cancer cell line panel; details: 3-day MTT; inhibitor; read-out: Table S1. IC50 of CCT271850 determined by MTT and clonogenic assays (CA). / All cell lines were tested at least 2 times. / 3-day MTT
Protocol: as §1

[9] = tested on: Capan-2; design: MTT antiproliferation assay, absorbance at 570 nm, human cancer cell line panel; details: 3-day MTT; inhibitor; read-out: Table S1. IC50 of CCT271850 determined by MTT and clonogenic assays (CA). / All cell lines were tested at least 2 times. / 3-day MTT
Protocol: as §1

[10] = tested on: PT45; design: MTT antiproliferation assay, absorbance at 570 nm, human cancer cell line panel; details: 3-day MTT; inhibitor; read-out: Table S1. IC50 of CCT271850 determined by MTT and clonogenic assays (CA). / All cell lines were tested at least 2 times. / 3-day MTT
Protocol: as §1

[11] = tested on: A2780; design: MTT antiproliferation assay, absorbance at 570 nm, human cancer cell line panel; details: 3-day MTT; inhibitor; read-out: Table S1. IC50 of CCT271850 determined by MTT and clonogenic assays (CA). / All cell lines were tested at least 2 times. / 3-day MTT
Protocol: as §1

[12] = tested on: OVCAR5; design: MTT antiproliferation assay, absorbance at 570 nm, human cancer cell line panel; details: 3-day MTT; inhibitor; read-out: Table S1. IC50 of CCT271850 determined by MTT and clonogenic assays (CA). / All cell lines were tested at least 2 times. / 3-day MTT
Protocol: as §1

[13] = tested on: Hs766T; design: MTT antiproliferation assay, absorbance at 570 nm, human cancer cell line panel; details: 3-day MTT; inhibitor; read-out: Table S1. IC50 of CCT271850 determined by MTT and clonogenic assays (CA). / All cell lines were tested at least 2 times. / 3-day MTT
Protocol: as §1

[14] = tested on: TYK-Nu; design: MTT antiproliferation assay, absorbance at 570 nm, human cancer cell line panel; details: 3-day MTT; inhibitor; read-out: Table S1. IC50 of CCT271850 determined by MTT and clonogenic assays (CA). / All cell lines were tested at least 2 times. / 3-day MTT
Protocol: as §1

[15] = tested on: OAW28; design: MTT antiproliferation assay, absorbance at 570 nm, human cancer cell line panel; details: 3-day MTT; inhibitor; read-out: Table S1. IC50 of CCT271850 determined by MTT and clonogenic assays (CA). / All cell lines were tested at least 2 times. / 3-day MTT
Protocol: as §1

[16] = tested on: OVCAR4; design: MTT antiproliferation assay, absorbance at 570 nm, human cancer cell line panel; details: 3-day MTT; inhibitor; read-out: Table S1. IC50 of CCT271850 determined by MTT and clonogenic assays (CA). / All cell lines were tested at least 2 times. / 3-day MTT
Protocol: as §1

[17] = tested on: Lon-HN5; design: MTT antiproliferation assay, absorbance at 570 nm, human cancer cell line panel; details: 3-day MTT; inhibitor; read-out: Table S1. IC50 of CCT271850 determined by MTT and clonogenic assays (CA). / All cell lines were tested at least 2 times. / 3-day MTT
Protocol: as §1

[18] = tested on: CaoV3; design: MTT antiproliferation assay, absorbance at 570 nm, human cancer cell line panel; details: 3-day MTT; inhibitor; read-out: Table S1. IC50 of CCT271850 determined by MTT and clonogenic assays (CA). / All cell lines were tested at least 2 times. / 3-day MTT
Protocol: as §1

[19] = tested on: CAL27; design: MTT antiproliferation assay, absorbance at 570 nm, human cancer cell line panel; details: 3-day MTT; inhibitor; read-out: Table S1. IC50 of CCT271850 determined by MTT and clonogenic assays (CA). / All cell lines were tested at least 2 times. / 3-day MTT
Protocol: as §1

[20] = tested on: Capan-1; design: MTT antiproliferation assay, absorbance at 570 nm, human cancer cell line panel; details: 3-day MTT; inhibitor; read-out: Table S1. IC50 of CCT271850 determined by MTT and clonogenic assays (CA). / All cell lines were tested at least 2 times. / 3-day MTT
Protocol: as §1

[21] = tested on: O13; design: MTT antiproliferation assay, absorbance at 570 nm, human cancer cell line panel; details: 3-day MTT; inhibitor; read-out: Table S1. IC50 of CCT271850 determined by MTT and clonogenic assays (CA). / All cell lines were tested at least 2 times. / 3-day MTT
Protocol: as §1

[22] = tested on: 011A; design: MTT antiproliferation assay, absorbance at 570 nm, human cancer cell line panel; details: 3-day MTT; inhibitor; read-out: Table S1. IC50 of CCT271850 determined by MTT and clonogenic assays (CA). / All cell lines were tested at least 2 times. / 3-day MTT
Protocol: as §1

[23] = tested on: PJ34; design: MTT antiproliferation assay, absorbance at 570 nm, human cancer cell line panel; details: 3-day MTT; inhibitor; read-out: Table S1. IC50 of CCT271850 determined by MTT and clonogenic assays (CA). / All cell lines were tested at least 2 times. / 3-day MTT
Protocol: as §1

[24] = tested on: RMG1; design: MTT antiproliferation assay, absorbance at 570 nm, human cancer cell line panel; details: 3-day MTT; inhibitor; read-out: Table S1. IC50 of CCT271850 determined by MTT and clonogenic assays (CA). / All cell lines were tested at least 2 times. / 3-day MTT
Protocol: as §1

[25] = tested on: HN6; design: clonogenic colony formation assay, growth inhibition IC50; details: 14-day clonogenic; read-out: Table S1. IC50 of CCT271850 determined by MTT and clonogenic assays (CA). / All cell lines were tested at least 2 times. / 14-day CA
Protocol: To evaluate CCT271850 antiproliferation effects in a large panel of human cancer cell lines, 91 cell lines were treated for 72 h and 14 days at different compound concentrations in growth inhibition assays. The growth inhibition values as measured by IC50 are summarised in Table 2 and Supplementary Table S1. […] Cell lines from colon and head and neck cancers were among the most sensitive.

For `COc1cc(-c2cnn(C)c2)ccc1Nc1ncc2ccnc(N[C@@H](C)C(C)(C)C)c2n1` [34h, CCT271850], the pIC50 [1] was 5.65, the pIC50 [2] was 5.51 and the pIC50 [3] was 6.61. The pIC50 [4] was 6.07, the pIC50 [5] was 5.86 and the pIC50 [6] was 5.88. For the same compound, the pIC50 [7] was 5.38, the pIC50 [8] was 6.10 and the pIC50 [9] was 5.81. The pIC50 [10] was 6.02, the pIC50 [11] was 6.86 and the pIC50 [12] was 6.14. It also gave a pIC50 [13] of 5.72, a pIC50 [14] of 6.00 and a pIC50 [15] of 5.99. It also gave a pIC50 [16] of 5.31, a pIC50 [17] of 6.49 and a pIC50 [18] of 6.44. For the same compound, the pIC50 [19] was 6.64, the pIC50 [20] was 5.69 and the pIC50 [21] was 5.90. For the same compound, the pIC50 [22] was 5.79, the pIC50 [23] was 5.95 and the pIC50 [24] was 6.95. For the same compound, the pIC50 [25] was 4.82.

— article PMC5418449, “Characterisation of CCT271850, a selective, oral and potent MPS1 inhibitor, used to directly measure in vivo MPS1 inhibition vs therapeutic efficacy” (British Journal of Cancer, 2017)
